In US9850216B2 (H. LEE MOFFITT CANCER CENTER AND RESEARCH INSTITUTE, INC., priority 2013, dated 2017):
Values joined by “and” are separate entries in the source; they are usually repeats but may differ in a detail not shown here. Equal entries are not always repeated. Where two headings read alike, the source gives them in different places.

Legend:
[1] = metastatic CRPC; literature; cited from earlier work
[2] = tested on: AR; assay: AR mRNA by real time PCR in androgen-deprived prostate cancer cells; type: cell-based, human; details: overnight treatment (FIG. 3a, b)
Source text: Total RNA was isolated followed by qPCR with AR primers. VCaP, *p=0.022; LNCaP, *p=0.042, **p=0.047. […] Total RNA was isolated followed by qPCR with PSA primers.

[3] = tested on: PSA; assay: PSA mRNA by real time PCR in androgen-deprived prostate cancer cells; type: cell-based, human; details: overnight treatment (FIG. 3c, d)
Source text: Total RNA was isolated followed by qPCR with AR primers. […] Total RNA was isolated followed by qPCR with PSA primers.

[4] = tested on: pY88-H4; assay: Endogenous H4 Y88-phosphorylation in LNCaP cells; type: cell-based, human; details: 16 hrs (FIG. 5b)
Method: In FIG. 5(a), equimolar amounts of purified ACK1 and H4 proteins were incubated in the presence of DZ1-067 (100 nM) and reaction subjected to immunoblotting with pY88-H4 antibodies. […] The nuclear lysates were immunoprecipitated with pY88-H4 antibodies followed by immunoblotting with H4. Lower panel is input lysate.

[5] = tested on: LAPC4 cells; assay: Cell growth, LAPC4; type: cell-based, human
Source text: Selected compounds from the library 9 were chosen to evaluate the effects of ACK1 inhibition in LAPC4 human prostate cancer cells with inhibition of cell growth as a read out. […] Based on the findings from cell culture data, enantiomers of 9b were synthesized to understand the ACK1 inhibitory activities of individual stereoisomers. […] The synthesis of (R)-9b and (S)-9b are shown in the Scheme 4 and other examples of enantiomerically pure compounds (not reported here) were also synthesized using the protocols in the Scheme 4.
(§1) Three distinct human prostate cancer derived cell lines, LNCaP, LAPC4 and VCaP were either DMSO treated or treated with 1, 2.5, 5, 7.5 and 10 μM of inhibitors, AIM-100, (R)-9b and (S)-9b for 36 hrs and the number of viable cells were counted by trypan blue exclusion assay.

[6] = target: T1, ACK1 (Homo sapiens, UniProt Q07912); assay: ACK1 ELISA: phosphorylation of AKT-derived peptide; type: biochemical
[7] = tested on: AR; assay: AR protein levels in androgen-deprived prostate cancer cells, immunoblotting; type: cell-based, human; details: immunoblotting (FIG. 2)
Method: Transcriptional regulation of the AR gene itself is a paradigm that merits thorough investigation. […] Whether AR utilizes ACK1 to facilitate its transcriptional co-activator function is not known. […] Cells were also treated with ACK1-specific small molecule inhibitors, DZ1-067 or AIM-100.

[8] = target: ALK (Homo sapiens, UniProt Q9UM73); assay: Kinase IC50 profiling, ALK; type: biochemical; details: Table 4; 10-dose; 10 μM ATP; read-out: Compound IC50 (M), ALK
Method: (§2) 8 compounds were tested against […], ACK1, Src and ALK in various combinations. […] Reactions were carried out at 10 μM ATP.

[9] = tested on: LNCaP cells; assay: Cell proliferation, trypan blue exclusion, LNCaP; type: cell-based, human; details: Homo sapiens, LNCaP; 36 hrs, viable cells by trypan blue exclusion; read-out: IC50, inhibition of cell growth in LNCaP cells
Method: (§3) The number of viable cells was counted by trypan blue exclusion assay.
as §1
(§4) The ability of the ACK1 inhibitors to suppress proliferation of prostate cancer cell lines were also assessed. AIM-100, an ACK1 inhibitor, originally screened by Amgen was used as a control. […] Overall, it appears that ACK1 is needed for androgen-independent growth of prostate cancer cells.

[10] = target: T1, ACK1; assay: 32P Hotspot assay (Reaction Biology), ACK1 IC50; type: biochemical
Method: as §2

[11] = tested on: VCaP cells; assay: Cell proliferation, trypan blue exclusion, VCaP; type: cell-based, human; details: Homo sapiens, VCaP; 36 hrs, viable cells by trypan blue exclusion; read-out: IC50, inhibition of cell growth in VCaP cells
Method: as §3, §1, §4

[12] = target: T1, ACK1; assay: EGF-induced ACK1 autophosphorylation (Tyr284) in LAPC4 cells, immunoblotting; type: cell-based; design: endogenous in cells; host or cells: LAPC4; details: pretreated with compound, 5 μM (FIG. 8(a))
Method: Inhibition of: LNCaP (FIG. 8(b)); LAPC4 (FIG. 8(c)), and VCaP (FIG. 8(d)) cell growth by AIM-100, (R)-9b, and (S)-9b. Inhibition of ACK1 autophosphorylation in LAPC4 cells treated 5 μM with (R)-9b and (S)-9b (FIG. 8(a)).
ACK1 is a tyrosine kinase that auto-phosphorylates at Tyr284, which is indicative of its kinase activation. To determine inhibitory potential of the compounds from library 9, prostate cancer derived cell line LAPC4 was treated with either EGF ligand alone or added to cells pretreated with the compounds, and equal amounts of cell lysates were subjected to immunoblotting. EGF (epidermal growth factor) ligand causes rapid activation of EGFR (epidermal growth factor receptor), which in turn lead to activation of the ACK1 kinase (FIG. 8(a), lane 2, top panel). […] Actin was used as control, which indicates equal loading of cell lysates (FIG. 8(a), lower panel).

[13] = 10 μM, Table 2, library 9, read-out: % Inhibition @ 10 μM (ELISA)
[14] = Table 1, unit inferred, (RB) = Reaction Biology, replicates listed, read-out: IC50
[15] = Table 4, 10-dose, 10 μM ATP, read-out: Compound IC50 (M), ACK1
[16] = 10 μM, Table 1, replicate values listed
[17] = 10 μM, Table 1, replicate values listed, read-out: % Inhibition at 10 μM (ELISA)
[18] = Table 1, nM, (RB) = Reaction Biology, replicates listed, read-out: IC50
[19] = Table 3, 10-dose, 3-fold dilution from 10 μM, 10 μM ATP, read-out: Compound IC50* (M): ACK1
[20] = Table 2, read-out: IC50 (32P Hotspot assay)

T1 sequence (Q07912 whole entry): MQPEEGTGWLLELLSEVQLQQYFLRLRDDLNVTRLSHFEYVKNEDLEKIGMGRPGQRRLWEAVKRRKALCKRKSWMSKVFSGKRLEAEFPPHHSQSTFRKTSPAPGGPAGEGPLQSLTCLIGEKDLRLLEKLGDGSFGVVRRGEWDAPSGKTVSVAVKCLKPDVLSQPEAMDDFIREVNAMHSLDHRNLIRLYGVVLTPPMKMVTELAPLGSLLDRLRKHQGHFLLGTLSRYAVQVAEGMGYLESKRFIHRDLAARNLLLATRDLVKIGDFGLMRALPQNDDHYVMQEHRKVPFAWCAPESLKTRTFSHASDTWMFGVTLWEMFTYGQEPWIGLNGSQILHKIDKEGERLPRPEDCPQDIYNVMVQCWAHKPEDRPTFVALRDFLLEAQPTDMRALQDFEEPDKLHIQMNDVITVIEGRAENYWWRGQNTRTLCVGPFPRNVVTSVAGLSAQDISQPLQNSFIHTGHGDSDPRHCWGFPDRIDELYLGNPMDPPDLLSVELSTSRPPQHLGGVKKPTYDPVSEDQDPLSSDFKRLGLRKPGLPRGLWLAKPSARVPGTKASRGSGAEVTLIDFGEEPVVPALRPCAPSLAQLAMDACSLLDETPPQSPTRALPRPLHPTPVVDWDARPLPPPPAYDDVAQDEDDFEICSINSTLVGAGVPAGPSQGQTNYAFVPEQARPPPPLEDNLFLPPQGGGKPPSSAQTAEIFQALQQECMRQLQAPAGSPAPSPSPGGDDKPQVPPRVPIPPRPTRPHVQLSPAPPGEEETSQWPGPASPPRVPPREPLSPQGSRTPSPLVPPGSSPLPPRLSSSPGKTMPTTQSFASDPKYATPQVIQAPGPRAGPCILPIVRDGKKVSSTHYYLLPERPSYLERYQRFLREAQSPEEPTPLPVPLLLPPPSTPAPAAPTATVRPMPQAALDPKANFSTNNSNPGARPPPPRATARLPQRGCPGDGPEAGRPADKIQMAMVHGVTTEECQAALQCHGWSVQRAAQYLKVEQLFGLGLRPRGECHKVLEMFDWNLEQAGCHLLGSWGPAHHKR
ALK, sequence (Q9UM73 19-1620): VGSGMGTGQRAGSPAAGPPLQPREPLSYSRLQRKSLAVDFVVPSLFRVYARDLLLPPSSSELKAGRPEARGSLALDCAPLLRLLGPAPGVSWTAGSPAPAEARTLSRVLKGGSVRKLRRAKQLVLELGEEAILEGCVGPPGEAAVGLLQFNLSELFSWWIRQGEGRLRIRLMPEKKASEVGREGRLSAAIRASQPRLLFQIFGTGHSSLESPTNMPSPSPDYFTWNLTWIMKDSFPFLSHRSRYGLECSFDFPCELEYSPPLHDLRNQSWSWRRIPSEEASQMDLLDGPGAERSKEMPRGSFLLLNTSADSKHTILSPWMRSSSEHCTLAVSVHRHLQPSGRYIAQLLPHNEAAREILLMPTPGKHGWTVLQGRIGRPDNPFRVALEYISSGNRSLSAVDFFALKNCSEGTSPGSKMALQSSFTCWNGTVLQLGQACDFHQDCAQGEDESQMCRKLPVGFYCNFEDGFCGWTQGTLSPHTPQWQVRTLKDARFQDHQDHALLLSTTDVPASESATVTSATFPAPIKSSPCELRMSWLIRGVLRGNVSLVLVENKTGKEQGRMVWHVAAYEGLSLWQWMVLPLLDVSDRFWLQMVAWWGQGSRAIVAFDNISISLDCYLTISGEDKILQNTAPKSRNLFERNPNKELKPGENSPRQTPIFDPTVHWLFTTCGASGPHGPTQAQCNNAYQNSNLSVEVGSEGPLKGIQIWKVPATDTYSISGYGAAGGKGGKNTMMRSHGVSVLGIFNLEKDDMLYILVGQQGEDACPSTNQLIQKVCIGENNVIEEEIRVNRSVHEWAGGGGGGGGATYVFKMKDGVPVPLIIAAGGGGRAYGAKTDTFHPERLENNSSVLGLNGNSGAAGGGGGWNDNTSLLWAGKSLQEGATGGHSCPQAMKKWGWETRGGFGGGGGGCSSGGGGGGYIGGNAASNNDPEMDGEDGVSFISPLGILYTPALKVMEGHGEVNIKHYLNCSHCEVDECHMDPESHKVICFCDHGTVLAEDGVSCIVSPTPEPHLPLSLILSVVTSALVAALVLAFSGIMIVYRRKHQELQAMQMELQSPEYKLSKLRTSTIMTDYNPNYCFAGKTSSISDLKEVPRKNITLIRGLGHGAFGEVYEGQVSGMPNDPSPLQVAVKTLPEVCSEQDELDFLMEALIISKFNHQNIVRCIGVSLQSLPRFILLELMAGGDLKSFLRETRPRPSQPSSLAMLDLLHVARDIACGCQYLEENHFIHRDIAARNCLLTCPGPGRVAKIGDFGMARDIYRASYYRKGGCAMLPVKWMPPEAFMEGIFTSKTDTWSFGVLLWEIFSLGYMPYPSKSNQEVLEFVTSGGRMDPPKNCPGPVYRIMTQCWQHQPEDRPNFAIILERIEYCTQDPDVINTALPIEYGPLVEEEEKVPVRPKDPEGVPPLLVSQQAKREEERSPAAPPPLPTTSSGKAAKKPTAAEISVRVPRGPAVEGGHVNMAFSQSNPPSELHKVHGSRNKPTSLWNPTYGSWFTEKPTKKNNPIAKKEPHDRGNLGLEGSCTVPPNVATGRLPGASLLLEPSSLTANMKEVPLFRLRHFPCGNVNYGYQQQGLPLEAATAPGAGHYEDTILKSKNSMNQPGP

## CNC(=O)c1ccc(N2C(=S)N(c3ccc(C#N)c(C(F)(F)F)c3)C(=O)C2(C)C)cc1F [Enzalutamide]
[1]
  CRPC patients in whom effective: 12 out of 30
  overall survival advantage: 4-6 months
[2]
  AR mRNA levels: no significant change
[3]
  PSA mRNA levels: significantly suppressed PSA mRNA levels
[4]
  endogenous pY88-phosphorylation of H4 in LNCaP cells: unaffected

## CN1CCN(c2ccc(Nc3ncc(Cl)c(NCC4CCCO4)n3)cc2)CC1 (stereo not drawn) [Compound 9b]
[5]
  cellular potency, ACK1 inhibition in LAPC4 cells with cell growth as read out: promising ACK1 inhibitory activities in cellular assays
[6]; [13]
  inhibition at 10 µM: 90.5 ± 0.7%

## CCCS(=O)(=O)Nc1ccc(F)c(C(=O)c2c[nH]c3ncc(-c4ccc(Cl)cc4)cc23)c1F [PLX4032]
[7]
  AR protein levels: little effect on AR expression
[2]
  AR mRNA levels: no significant change

## CN1CCN(c2ccc(Nc3ncc(Cl)c(NC[C@@H]4CCCO4)n3)cc2)CC1 [DZ1-077, (S)-5-chloro-N2-(4-(4-methylpiperazin-1-yl)phenyl)-N4-((tetrahydrofuran-2-yl)methyl)pyrimidine-2,4-diamine]
[8]
  IC50: 2.96e-07 M
[9]
  IC50: 1800 nM
[10]; [14]
  IC50: 8.05e-08 M and 8.33e-08 M
[10]; [15]
  IC50: 8.33e-08 M
[11]
  IC50: 4000 nM
[6]; [16]
  % Inhibition at 10 μM (ELISA): 94%
[6]; [17]
  inhibition at 10 µM: 93%

## C[C@]12CCC(=O)C[C@@H]1CC[C@@H]1[C@@H]2CC[C@]2(C)[C@@H](O)CC[C@@H]12 [DHT]
[7]
  AR protein levels: increased AR levels
[2]
  AR mRNA levels: no significant change
[4]
  endogenous pY88-phosphorylation of H4 in LNCaP cells: unaffected

## CC(O)(CS(=O)(=O)c1ccc(F)cc1)C(=O)Nc1ccc(C#N)c(C(F)(F)F)c1 (stereo not drawn) [Casodex]
[2]
  AR mRNA levels: no significant change
[3]
  PSA mRNA levels: significantly suppressed PSA mRNA levels

## Cl.O=C(Nc1c(F)cccc1Cl)c1cnc(Nc2ccc(C3CCNCC3)cc2)nc1NCC1CCCO1 (stereo not drawn) [DZ1-089, N-(2-chloro-6-fluorophenyl)-2-(4-(piperidin-4-yl)phenylamino)-4-((tetrahydrofuran-2-yl)methylamino)pyrimidine-5-carboxamide]
[10]; [14]
  IC50: 5.33e-08 M
[6]; [16]
  % Inhibition at 10 μM (ELISA): 97, 97%

## Cc1cc(Nc2ncc(Br)c(NCC3CCCO3)n2)ccc1O.Cl (stereo not drawn) [SK1-040, 4-(5-bromo-4-((tetrahydrofuran-2-yl)methylamino)pyrimidin-2-ylamino)-2-methylphenol]
[10]; [18]
  IC50: 9.95e-08 M
[6]; [16]
  % Inhibition at 10 μM (ELISA): 90% and 61% and 56% and 57%

## Oc1ccc(Nc2ncc(Cl)c(NCC3CCCO3)n2)cc1 (stereo not drawn) [DZ1-120, 4-(5-chloro-4-((tetrahydrofuran-2-yl)methylamino)pyrimidin-2-ylamino)phenol]
[10]; [14]
  IC50: 1.63e-07 M
[10]; [19]
  IC50: 1.63e-07 M
[6]; [16]
  % Inhibition at 10 μM (ELISA): 58%
[6]; [17]
  inhibition at 10 µM: 73%

## Brc1cnc(Nc2ccc(N3CCOCC3)cc2)nc1NCC1CCCO1.Cl (stereo not drawn) [DZ1-091, 5-bromo-N2-(4-morpholinophenyl)-N4-((tetrahydrofuran-2-yl)methyl)pyrimidine-2,4-diamine]
[10]; [14]
  IC50: 1.06e-07 M
[6]; [16]
  % Inhibition at 10 μM (ELISA): 90%
[6]; [17]
  inhibition at 10 µM: 88%

## Cl.O=C(Nc1c(F)cccc1Cl)c1cnc(Nc2ccc(N3CCC(C(=O)O)CC3)cc2)nc1NCC1CCCO1 (stereo not drawn) [DZ1-096]
[10]; [14]
  IC50: 3.63e-08 M and 3.22e-08 M
[10]; [15]
  IC50: 3.22e-08 M
[6]; [16]
  % Inhibition at 10 μM (ELISA): 98, 98%
[6]; [17]
  inhibition at 10 µM: 98%

## Cl.Oc1ccc(Nc2ncc(Br)c(NCC3CCCO3)n2)cc1F (stereo not drawn) [SK1-044, 4-(5-bromo-4-((tetrahydrofuran-2-yl)methylamino)pyrimidin-2-ylamino)-2-fluorophenol]
[10]; [18]
  IC50: 2.99e-07 M
[6]; [16]
  % Inhibition at 10 μM (ELISA): 89% and 63% and 28% and 38%

## O=C(O)CCC(=O)N1CCN(c2ccc(Nc3ncc(C(=O)Nc4c(F)cccc4Cl)c(NCC4CCCO4)n3)cc2)CC1 (stereo not drawn) [YL9-163, 4-(4-(4-(5-(2-Chloro-6-fluorophenylcarbamoyl)-4-((tetrahydrofuran-2-yl)methylamino)pyrimidin-2-ylamino)phenyl)piperazin-1-yl)-4-oxobutanoic acid]
[10]; [19]
  IC50: 2.84e-08 M
[6]; [16]
  % Inhibition at 10 μM (ELISA): 93%
[6]; [17]
  inhibition at 10 µM: 85%

## O=C(Nc1c(F)cccc1Cl)c1cnc(Nc2ccc(N3CCNCC3)cc2)nc1NCC1CCCO1 (stereo not drawn) [Compound 9m]
[5]
  cellular potency, ACK1 inhibition in LAPC4 cells with cell growth as read out: did not display the expected cellular potency
[6]; read-out: % Inhibition @ 10 μM (ELISA), 10 μM, Table 2, library 9
  inhibition at 10 µM: 89.5 ± 2.1%

## CN1CCN(c2ccc(Nc3ncc(C(=O)Nc4c(F)cccc4Cl)c(NCC4CCCO4)n3)cc2)CC1 (stereo not drawn) [DZ1-114, N-(2-chloro-6-fluorophenyl)-2-(4-(4-methylpiperazin-1-yl)phenylamino)-4-((tetrahydrofuran-2-yl)methylamino)pyrimidine-5-carboxamide]
[10]; [19]
  IC50: 4.83e-08 M
[6]; [16]
  % Inhibition at 10 μM (ELISA): 95%
[6]; [17]
  inhibition at 10 µM: 99%

## CN1CCN(c2ccc(Nc3ncc(Br)c(NCC4CCCO4)n3)cc2)CC1 (stereo not drawn) [DZ1-122, 5-bromo-N2-(4-(4-methylpiperazin-1-yl)phenyl)-N4-((tetrahydrofuran-2-yl)methyl)pyrimidine-2,4-diamine]
[10]; [14]
  IC50: 4.8e-08 M
[6]; [16]
  % Inhibition at 10 μM (ELISA): 91%
[6]; [17]
  inhibition at 10 µM: 95%

## COc1cc(N2CCC(N3CCN(C)CC3)CC2)ccc1Nc1ncc(Cl)c(Nc2ccccc2S(=O)(=O)C(C)C)n1 [TAE684]
[12]
  ACK1 activation (autophosphorylation) in EGF-treated LAPC4 cells: significant reduction in ACK1 activation

## Brc1cnc(Nc2ccc(C3CCNCC3)cc2)nc1NCC1CCCO1 (stereo not drawn) [Compound 9k]
[10]; [20]
  IC50: 1.69e-07 M
[6]; [13]
  inhibition at 10 µM: 84.5 ± 0.7%

## O=C(Nc1c(F)cccc1Cl)c1cnc(Nc2ccc(N3CCOCC3)cc2)nc1NCC1CCCO1 (stereo not drawn) [Compound 9n]
[5]
  cellular potency, ACK1 inhibition in LAPC4 cells with cell growth as read out: did not display the expected cellular potency
[10]; [20]
  IC50: 4.77e-08 M
[6]; [13]
  inhibition at 10 µM: 82 ± 7.7%

## O=C(O)C1CCN(c2ccc(Nc3ncc(Cl)c(NC[C@H]4CCCO4)n3)cc2)CC1 [DZ1-072, (R)-1-(4-(5-chloro-4-((tetrahydrofuran-2-yl)methylamino)pyrimidin-2-ylamino)phenyl)piperidine-4-carboxylic acid]
[10]; [14]
  IC50: 9.16e-08 M
[6]; [16]
  % Inhibition at 10 μM (ELISA): 95%
[6]; [17]
  inhibition at 10 µM: 96%

## Clc1cnc(Nc2ccc(N3CCNCC3)cc2)nc1NCC1CCCO1 (stereo not drawn) [Compound 9a]
[10]; 32P hotspot / enzymatic assay, read-out: ACK1 IC50
  IC50: 8.1e-08 M
[6]; 10 μM, Table 2, library 9
  % Inhibition @ 10 μM (ELISA): 82 ± 12.7%
